According to article PMC8067632, “Assessment and Development of the Antifungal Agent Caspofungin for Aerosolized Pulmonary Delivery” (Pharmaceutics, 2021):

Assays:
[1] = tested on: Candida albicans ATCC44858; assay: microbe, parasite or virus in culture; format: cell-based; conditions: CLSI broth microdilution, visual, duplicate
Protocol: (§1) Antifungal potency of the test article(s) was measured using the in vitro broth microdilution assay under test conditions described by the Clinical and Laboratory Standards Institute. Minimum Inhibitory Concentration (MIC) is defined as the lowest concentration of an agent that causes a specified reduction in visible growth of the microorganism. Minimum Effective Concentration (MEC) is defined as the lowest concentration of an agent that leads to the growth of small, rounded, compact hyphal forms, as compared to the hyphal growth typically seen in the growth control well. MIC values were determined for 9 Candida spp., and MEC values were determined for filamentous fungus species (Aspergillus fumigatus and Trichophyton rubrum). Details of the test article preparations and methodologies are described in Supplementary Material S1.
(§2) Following incubation, the test plates were visually examined and wells were scored for growth or complete growth inhibition to define the MIC values. Microscopy examination was used to determine the MEC values. Each test substance was evaluated in duplicate and the results are the duplicate test values. Vehicle-control and an active reference agent were used as blank and positive controls, respectively. […]
(§3) S1. In Vitro Testing, Test Article Preparations
(§4) The 5 mg/mL stock solution was prepared as the following. The refrigerated vial was equilibrated to room temperature. Test vial was reconstituted aseptically with 10.5 mL 0.9% NaCl. The powder was dissolved completely, mixing until a clear solution was ob-tained. The final concentration was 5.0 mg/mL of caspofungin freebase. The reconstituted solution was stable for 1 hr at room temperature. The 5 mg/mL stock solution was then […]
(§5) The refrigerated vial was equilibrated to room temperature. The powder was dis-solved completely, mixing until a clear solution was obtained. Test vial was reconstituted aseptically with 1.8 mL 0.9% NaCl. The white to off-white powder was dissolved com-pletely, mixing gently until a clear solution was obtained. The final concentration was 5.0 mg/mL of caspofungin freebase. The reconstituted solution was used within 1 hr at room temperature. The 5 mg/mL stock solution was then diluted with 0.9% NaCl to prepare the […]
(§6) 1.3. Caspofungin Diacetate
(§7) The 5 mg/mL API stock solution was prepared as the following. The refrigerated vial was equilibrated to room temperature. Test vial was filled aseptically with 1.8 mL 0.9%
(§8) NaCl. The powder was dissolved completely, mixing until a clear solution was obtained.
(§9) The final concentration was 5.0 mg/mL of caspofungin freebase. The reconstituted solu-tion was used within 1 hr at room temperature. The 5 mg/mL stock solution was then […]
(§10) g compound, corresponding to 1.2 mg active compound with a correction factor of 2.40 was added 0.375 mL of water for injection to generate the 3.2 mg/mL working stock solution for testing. The 3.2 mg/mL working stock solution was 2-fold diluted seri-ally in 0.9% NaCl to prepare a total of eleven 50-fold stock solutions, concentrations rang-ing from 3.2 to 0.003 mg/mL. A 4 μL aliquot of each dilution was added to 196 μL of broth medium seeded with the organism suspension in wells of a 96 well plate (fungal cell count: 1 x 10^3 to 1 x 10^4 colony forming units per mL). The final volume was 200 μL in each […]

[2] = tested on: Candida albicans ATCC90028 + 50%human serum; assay: microbe, parasite or virus in culture; format: cell-based; conditions: CLSI broth microdilution, duplicate
Protocol: as §1, §2, §3, §4, §5, §6, §7, §8, §9, §10

[3] = tested on: Candida albicans ATCC90028; assay: microbe, parasite or virus in culture; format: cell-based; conditions: CLSI broth microdilution, visual, duplicate
Protocol: as §1, §2, §3, §4, §5, §6, §7, §8, §9, §10

[4] = tested on: Candida albicans Azole-R (20183.073); assay: microbe, parasite or virus in culture; format: cell-based; conditions: CLSI broth microdilution, azole-resistant strain, duplicate
Protocol: as §1, §2, §3, §4, §5, §6, §7, §8, §9, §10

[5] = tested on: Candida albicans Azole-R (20186.025); assay: microbe, parasite or virus in culture; format: cell-based; conditions: CLSI broth microdilution, azole-resistant strain, duplicate
Protocol: as §1, §2, §3, §4, §5, §6, §7, §8, §9, §10

[6] = tested on: Candida glabrata ATCC 36583; assay: microbe, parasite or virus in culture; format: cell-based; conditions: CLSI broth microdilution, duplicate
Protocol: as §1, §2, §3, §4, §5, §6, §7, §8, §9, §10

Candida krusei ATCC 6258 = assay: microbe, parasite or virus in culture; format: cell-based; conditions: CLSI broth microdilution, duplicate
Protocol: as §1, §2, §3, §4, §5, §6, §7, §8, §9, §10

[7] = tested on: Candida parapsilosis ATCC 22019; assay: microbe, parasite or virus in culture; format: cell-based; conditions: CLSI broth microdilution, duplicate
Protocol: as §1, §2, §3, §4, §5, §6, §7, §8, §9, §10

[8] = tested on: Candida tropicalis ATCC 200956; assay: microbe, parasite or virus in culture; format: cell-based; conditions: CLSI broth microdilution, duplicate
Protocol: as §1, §2, §3, §4, §5, §6, §7, §8, §9, §10

[9] = tested on: Aspergillus fumigatus ATCC 13073; assay: Broth microdilution MEC; format: cell-based; conditions: CLSI broth microdilution, microscopy, duplicate
Protocol: as §1, §2, §3, §4, §5, §6, §7, §8, §9, §10

[10] = tested on: Aspergillus fumigatus ATCC204305; assay: Broth microdilution MEC; format: cell-based; conditions: CLSI broth microdilution, microscopy, duplicate
Protocol: as §1, §2, §3, §4, §5, §6, §7, §8, §9, §10

[11] = tested on: Trichophyton rubrum ATCC 10218; assay: Broth microdilution MEC; format: cell-based; conditions: CLSI broth microdilution, microscopy, duplicate
Protocol: as §1, §2, §3, §4, §5, §6, §7, §8, §9, §10

[12] = Stability of lyophilized formulations by HPLC; format: physicochemical; conditions: caspofungin API lyophilized alone from water, 0 months; HPLC UV 220 nm
Protocol: Lyophilization was accomplished using a VirTis benchtop manifold lyophilizer (SP Scientific, Stone Ridge, NY, USA) under vacuum of <50 mTorr. […] High-performance liquid chromatography (HPLC) analysis was carried out on a Waters 2695 separations module (Waters Corporation, Milford, MA, USA) equipped with an autosampler and a Waters 996 photodiode array detector. For impurity determinations a Waters Symmetry (Waters Corporation, Milford, MA, USA) C18 3.5 µm, 4.6 × 75 mm column was used. For weight-weight assay a Waters Symmetry C18 Column (Waters Corporation, Milford, MA, USA), 3.5 µm, 4.6 mm × 100 mm column was employed. […] Reconstituted stability analyses were analyzed using the above HPLC methods.
The stability of the lyophilized formulations was studied under two sets of temperature conditions, 2–5 °C and 25 °C. […] At the specified time points the test articles were reconstituted with normal saline to yield a 10 mg/mL solution for HPLC assay. For comparison, we also lyophilized caspofungin API alone.
HPLC analysis was carried out on a Waters 2695 separations module equipped with
an autosampler and a Waters 996 photodiode array detector. The HPLC method is de-
Column: Waters symmetry C18 3.5 μm, 4.6 x 75 mm
Column Temperature: 30 °C
Autosampler temperature: 4 °C
Mobile phase: A: Add 1.0 mL of perchloric acid and 0.75 g of sodium chloride in 1000
mL HPLC grade water; B: Acetonitrile. […]

[13] = tested on: invasive aspergillosis patients; conditions: cited from earlier work
Text: Invasive Pulmonary Aspergillosis (IPA) and Pneumocystis jiroveci Pneumonia (PCP) are serious fungal pulmonary diseases for immunocompromised patients. The brand name drug […]® (Caspofungin acetate for injection) is FDA approved to treat IPA, but is only 40% effective. Efficacious drug levels at the lung infection site are not achieved by systemic administration. Increasing the dose leads to toxicity. The objective, here, is to reformulate caspofungin for aerosolization to high drug concentration by lung targeted delivery and avoid systemic distribution. Described in this paper is a new, ... || Morphologically Aspergillus grows and propagates within the lung cavity. […] This may explain low human efficacy (40%) of caspofungin in treating IPA. Drug concentr ... || Caspofungin for injection (tradename: […]®) is sold by Merck & Co., Inc. The approved […]® dose is a 70 mg loading dose and then 50 mg/daily. Previous intravenous (IV) studies with caspofungin in animals have shown that IV administered drug only delivers about 5% of the drug level in blood to the lungs. […] Most of the IV drugs is distributed to other sensitive target organs, such as the liver and kidneys, which if given in higher doses, can lead ... || (+ 1 further places)

[14] = IV administration, lung tissue; cited from earlier work
Protocol: Morphologically Aspergillus grows and propagates within the lung cavity. […] This may explain low human efficacy (40%) of caspofungin in treating IPA. Drug concentr ... || Caspofungin for injection (tradename: […]®) is sold by Merck & Co., Inc. The approved […]® dose is a 70 mg loading dose and then 50 mg/daily. Previous intravenous (IV) studies with caspofungin in animals have shown that IV administered drug only delivers about 5% of the drug level in blood to the lungs. […] Most of the IV drugs is distributed to other sensitive target organs, such as the liver and kidneys, which if given in higher doses, can lead ...

SMILES: CC[C@H](C)C[C@H](C)CCCCCCCCC(=O)N[C@H]1C[C@@H](O)[C@@H](NCCN)NC(=O)[C@@H]2[C@@H](O)CCN2C(=O)[C@H]([C@H](O)CCN)NC(=O)[C@H]([C@H](O)[C@@H](O)c2ccc(O)cc2)NC(=O)[C@@H]2C[C@@H](O)CN2C(=O)[C@H]([C@@H](C)O)NC1=O [Caspofungin Diacetate]
- MIC [1]: 0.25 µg/mL
- MIC [2]: 0.125 µg/mL
- MIC [3]: 0.25 µg/mL
- MIC [4]: 0.25 µg/mL
- MIC [5]: 0.25 µg/mL
- MIC [6]: 0.25 µg/mL
- MIC (Candida krusei ATCC 6258): 1 µg/mL
- MIC [7]: 1 µg/mL
- MIC [8]: 0.25 µg/mL
- MEC [9]: 0.0625 µg/mL
- MEC [10]: 0.125 µg/mL
- MEC [11]: 0.125 µg/mL
- HPLC Purity % [12]: 95.42%
- response rate (complete or partial response) ([13]; IPA patients, high dose group 200 mg/day intravenously): 60%
- favorable response ([13]; IPA patients, standard dose group IV): 44%
- patients presenting with liver toxicity ([13]; high dose group 200 mg/day IV, elevated liver enzymes and liver failure): 65%
- liver enzyme abnormalities ([13]; standard dose group IV): No liver enzyme abnormalities were observed
- percentage of IV delivered drug detected in lung [14]: about 5%
